Laboratory results as given in ChEMBL document CHEMBL1201862, “PubChem BioAssay data set” (2004).
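Compound exposure: 48 hours, 5 concentrations, 96-well plates. Here, GI50 denotes the concentration required for 50% inhibition of growth.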 Calls of active or inactive are those of the source. No stated cut-off is given here; in the data, active = GI50 up to about 1.1 µM and inactive = higher.

Columns and labels:
Assay in all cases: NCI tumour cell line growth inhibition, 48 h
[1] = tested on: 786-0
[2] = tested on: A498
[3] = tested on: A549
[4] = tested on: ACHN
[5] = tested on: BT-549
[6] = tested on: CAKI-1
[7] = tested on: CCRF-CEM
[8] = tested on: COLO 205
[9] = tested on: DU-145
[10] = tested on: EKVX
[11] = tested on: HCC 2998
[12] = tested on: HCT-116
[13] = tested on: HCT-15
[14] = tested on: HL-60
[15] = tested on: HOP-62
[16] = tested on: HOP-92
[17] = tested on: HT-29
[18] = tested on: IGROV-1
[19] = tested on: K562
[20] = tested on: KM12
[21] = tested on: LOX IMVI
[22] = tested on: M14
[23] = tested on: MCF7
[24] = tested on: MDA-MB-231
[25] = tested on: MDA-MB-435
[26] = tested on: MDA-N
[27] = tested on: MOLT-4
[28] = tested on: NCI-H226
[29] = tested on: NCI-H23
[30] = tested on: NCI-H522
[31] = tested on: NCI/ADR-RES
[32] = tested on: OVCAR-3
[33] = tested on: OVCAR-4
[34] = tested on: OVCAR-5
[35] = tested on: OVCAR-8
[36] = tested on: PC-3
[37] = tested on: RPMI-8226
[38] = tested on: SF-268
[39] = tested on: SF-295
[40] = tested on: SF-539
[41] = tested on: SK-MEL-28
[42] = tested on: SK-MEL-2
[43] = tested on: SK-MEL-5
[44] = tested on: SK-OV-3
[45] = tested on: SN12C
[46] = tested on: SNB-19
[47] = tested on: SR
[48] = tested on: SW-620
[49] = tested on: T47D
[50] = tested on: TK-10
[51] = tested on: U-251
[52] = tested on: UACC-257
[53] = tested on: UACC-62
[54] = tested on: UO-31
[55] = tested on: NCI-H460
[56] = tested on: RXF 393
[57] = tested on: SNB-75

O=CNCCCN1CCN(CCCNC=O)CC1
GI50 [1]: > 100 µM (inactive) | GI50 [2]: > 100 µM (inactive) | GI50 [3]: > 100 µM (inactive) | GI50 [4]: > 100 µM (inactive) | GI50 [5]: > 100 µM (inactive) | GI50 [6]: > 100 µM (inactive) | GI50 [7]: > 100 µM (inactive) | GI50 [8]: > 100 µM (inactive) | GI50 [9]: > 100 µM (inactive) | GI50 [10]: > 100 µM (inactive) | GI50 [11]: > 100 µM (inactive) | GI50 [12]: > 100 µM (inactive) | GI50 [13]: > 100 µM | GI50 [14]: > 100 µM (inactive) | GI50 [15]: > 100 µM (inactive) | GI50 [16]: > 100 µM (inactive) | GI50 [17]: > 100 µM (inactive) | GI50 [18]: > 100 µM (inactive) | GI50 [19]: > 100 µM (inactive) | GI50 [20]: > 100 µM (inactive) | GI50 [21]: > 100 µM (inactive) | GI50 [22]: > 100 µM (inactive) | GI50 [23]: > 100 µM (inactive) | GI50 [24]: > 100 µM (inactive) | GI50 [25]: > 100 µM (inactive) | GI50 [26]: > 100 µM (inactive) | GI50 [27]: > 100 µM (inactive) | GI50 [28]: > 100 µM (inactive) | GI50 [29]: > 100 µM (inactive) | GI50 [30]: 1.6 µM (inactive) | GI50 [31]: > 100 µM (inactive) | GI50 [32]: > 100 µM (inactive) | GI50 [33]: > 100 µM (inactive) | GI50 [34]: > 100 µM (inactive) | GI50 [35]: > 100 µM (inactive) | GI50 [36]: > 100 µM (inactive) | GI50 [37]: > 100 µM (inactive) | GI50 [38]: 4.88 µM (inactive) | GI50 [39]: > 100 µM (inactive) | GI50 [40]: > 100 µM (inactive) | GI50 [41]: > 100 µM (inactive) | GI50 [42]: > 100 µM (inactive) | GI50 [43]: > 100 µM (inactive) | GI50 [44]: > 100 µM (inactive) | GI50 [45]: > 100 µM (inactive) | GI50 [46]: > 100 µM (inactive) | GI50 [47]: > 100 µM (inactive) | GI50 [48]: > 100 µM (inactive) | GI50 [49]: > 100 µM (inactive) | GI50 [50]: > 100 µM (inactive) | GI50 [51]: > 100 µM (inactive) | GI50 [52]: > 100 µM (inactive) | GI50 [53]: > 100 µM (inactive) | GI50 [54]: > 100 µM (inactive)

CCC1(c2ccc(OC)c(OC)c2)CCN2C(=O)C(O)CC21 (stereo not given)
GI50 [1]: > 100 µM (inactive) | GI50 [3]: > 100 µM (inactive) | GI50 [4]: > 100 µM (inactive) | GI50 [5]: > 100 µM (inactive) | GI50 [6]: > 100 µM (inactive) | GI50 [7]: > 100 µM (inactive) | GI50 [8]: > 100 µM (inactive) | GI50 [9]: > 100 µM (inactive) | GI50 [10]: > 100 µM (inactive) | GI50 [11]: > 100 µM (inactive) | GI50 [12]: > 100 µM (inactive) | GI50 [13]: > 100 µM | GI50 [15]: > 100 µM (inactive) | GI50 [17]: > 100 µM (inactive) | GI50 [18]: > 100 µM (inactive) | GI50 [19]: > 100 µM (inactive) | GI50 [20]: > 100 µM (inactive) | GI50 [21]: > 100 µM (inactive) | GI50 [22]: > 100 µM (inactive) | GI50 [23]: > 100 µM (inactive) | GI50 [24]: > 100 µM (inactive) | GI50 [25]: > 100 µM (inactive) | GI50 [26]: > 100 µM (inactive) | GI50 [27]: > 100 µM (inactive) | GI50 [28]: > 100 µM (inactive) | GI50 [29]: > 100 µM (inactive) | GI50 [55]: > 100 µM (inactive) | GI50 [30]: > 100 µM (inactive) | GI50 [31]: > 100 µM (inactive) | GI50 [32]: > 100 µM (inactive) | GI50 [33]: > 100 µM (inactive) | GI50 [34]: > 100 µM (inactive) | GI50 [36]: > 100 µM (inactive) | GI50 [56]: > 100 µM (inactive) | GI50 [38]: > 100 µM (inactive) | GI50 [39]: > 100 µM (inactive) | GI50 [41]: > 100 µM (inactive) | GI50 [42]: > 100 µM (inactive) | GI50 [43]: > 100 µM (inactive) | GI50 [44]: > 100 µM (inactive) | GI50 [45]: > 100 µM (inactive) | GI50 [46]: > 100 µM (inactive) | GI50 [57]: > 100 µM (inactive) | GI50 [47]: > 100 µM (inactive) | GI50 [48]: > 100 µM (inactive) | GI50 [49]: > 100 µM (inactive) | GI50 [50]: > 100 µM (inactive) | GI50 [51]: > 100 µM (inactive) | GI50 [52]: > 100 µM (inactive) | GI50 [53]: > 100 µM (inactive) | GI50 [54]: > 100 µM (inactive)
